Measurements published in US5994349A, “3-carboalkoxy-2, 3-dihydro-1H-phenothiazin-4[10H]-one derivatives” (priority 1997, dated 1999).
Where two headings read alike, the source gives them in different places.

Tests used:
[1] = system: pentylenetetrazol seizures; assay: subcutaneous pentylenetetrazol (scMet) test, Phase I, mice ip; type: in vivo, male Carworth Farms No. 1 (CF1) mice; conditions: Mus musculus, mice ip
Experimental: (§1) Initial evaluations for anticonvulsant activity include phases I, VIA and VIB test procedures. These tests are performed intraperitoneally in male Carworth Farms No. 1 (CF1) mice, weighing 18-25 g (Phase I) or orally in male Sprague-Dawley rats, weighing 100-150 g (Phases VIA and VIB). The evaluation is based on three tests: maximal electroshock (MES), subcutaneous (scMet), and the rotorod test for neurological toxicity (Tox). (a) Anticonvulsant Screening Project, Antiepileptic Drug Development Program, National Institutes of Health, DHEW Publ (NIH)(U.S.) 1978, NIH 78-1093. (b) Porter, R. J.; Cereghino, J. J.; Gladding, G. D.; Hessie, B. J.; Kupferberg, H. J.; Scoville, B.; White, B. G. Antiepileptic drug development program. Cleveland Clin. Q. 1984, 51, 293-305. (c) Krall, R. L.; Penry, J. K.; White, B. G.; Kupferberg, H. J.; Swinyard, E. A. Antiepileptic drug development: II. Anticonvulsant drug screening. Epilepsia 1978, 19, 400-428. In the MES test, maximal electroshock seizures are elicited with a 60- cycle alternating current of 50 mA intensity (5-7 times that necessary to elicit minimal electroshock seizures) delivered via corneal electrodes for 0.2 seconds. A drop of 0.9% saline is placed on the eye prior to application of the electrodes in order to […]. Abolition of the hind limb tonic extension component of the seizure is defined as protection and results are expressed as the number of animals protected/the number of animals tested.
In the sc MET test, eighty-five mg/kg of pentylenetetrazol, which induces seizures in more than 95% of mice, is administered as a 0.5% solution subcutaneously in the posterior midline. The animal is observed for 30 minutes. Failure to observe even a threshold seizure (a single episode of clonic spasms of at least 5 seconds duration) is defined as protection and the results are expressed as the number of animals protected/ the number of animals tested. […]

neurotoxicity (rotorod) [2] = assay: rotorod test for neurological toxicity (Tox), Phase I, mice ip; type: in vivo, male Carworth Farms No. 1 (CF1) mice
Experimental: as §1
The rotorod test is used to evaluate neurotoxicity. The animal is placed on a 1 inch diameter knurled plastic rod rotating at 6 rpm. Normal mice can remain on a rod rotating at this speed indefinitely. […]

[3] = system: maximal electroshock seizures; assay: MES confirmation of TTE test, mice ip; type: in vivo; conditions: 100 mg/kg
Experimental: as §1
(§2) Piredda, S. G.; Woodhead, J. H.; Swinyard, E. A. Effect of stimulus intensity on the profile of anticonvulsant activity of phenytoin, ethosuximide and valproate. J. Pharmacol. Exp. Ther. 1985, 232, 741-745. The TTE test is a clinically nonselective, electroconvulsive seizure model that identifies compounds that raise seizure threshold as well as those that prevent seizure spread. […] The TTE test is similar to the MES screen but uses a lower level of electrical current. The lower current makes the TTE test more sensitive, but less discriminate than the MES screen. This ability makes the model attractive because it allows for the identification of compounds that may have been omitted by the standard identification screen. […] These TTE active compounds may represent compounds acting by novel mechanisms.
Twenty mice are pretreated with 100 mg/kg of the test compound. At several time intervals (15 min, 30 min, 1 h, 2 h and 4 h) post treatment with the test compound, four mice at each time point are challenged with 12.5 mA of electrical current for 0.2 sec via corneal electrodes. This stimulation produces a TTE seizure in the animals. For each time interval, results are expressed as a ratio of the number of animals protected over the number of animals tested.

[4] = system: maximal electroshock seizures; assay: maximal electroshock (MES) test, Phase I, mice ip; type: in vivo, male Carworth Farms No. 1 (CF1) mice; conditions: for responders at 30 mg/kg / responders at 100 mg/kg / responders at 300 mg/kg: Mus musculus
Experimental: as §1
In phase I, compounds are suspended in 0.5% aqueous methylcellulose and are administered intraperitoneally at three dosage levels (30, 100, and 300 mg/kg) with anticonvulsant activity and motor impairment noted 30 min and 4 h (and in some cases 2 h and 6 h) after administration.

[5] = system: threshold tonic extension electroshock seizures; assay: Threshold Tonic Extension (TTE) test, mice ip; type: in vivo; conditions: 100 mg/kg
Description: as §2
Twenty mice are pretreated with 100 mg/kg of the test compound. […] This stimulation produces a TTE seizure in the animals. For each time interval, results are expressed as a ratio of the number of animals protected over the number of animals tested.

neurotoxicity (rotorod) [6] = assay: rotorod toxicity, oral rat (Phase VIA/VIB); type: in vivo, male Sprague-Dawley rats; conditions: rat oral, 30 mg/kg
Experimental: as §1
(§3) The rotorod test is used to evaluate neurotoxicity. The animal is placed on a 1 inch diameter knurled plastic rod rotating at 6 rpm. Normal mice can remain on a rod rotating at this speed indefinitely.
(§4) To differentiate the results between different rodent species, 4b (X=H), as well as 4a (R=H), 4e (R=Cl), 4f (R=Cl) and 4i (R=CH3) are subsequently evaluated for oral (po) activity in the rat (Phase VIA or VIB).

[7] = system: maximal electroshock seizures; assay: maximal electroshock (MES) test, oral rat (Phase VIA/VIB); type: in vivo, male Sprague-Dawley rats
Experimental: as §1, §4

[8] = rotorod toxicity, oral rat (Phase VIA/VIB); type: in vivo, male Sprague-Dawley rats; conditions: rat, in vivo, po
Experimental: as §1, §3, §4

[9] = 0.5 h, 30 min, read-out: scMet 30 min
[10] = 0.5 h, 30 min, read-out: scMet 30 min (converted)
[11] = 4 h, read-out: scMet 4 h (converted)
[12] = 4 h, read-out: MES 4 h (converted)
[13] = 0.5 h, 30 min, read-out: MES 30 min (converted)

| SMILES | responders at 30 mg/kg [1, 9] [%] | responders at 100 mg/kg [1, 9] [%] | responders at 300 mg/kg [1, 10] [%] | responders at 30 mg/kg ([1]; 4 h, read-out: scMet 4 h) [%] | responders at 100 mg/kg ([1]; 4 h, read-out: scMet 4 h) [%] | responders at 300 mg/kg [1, 11] [%] | Tox 30 min (neurotoxicity (rotorod) [2]; 30 mg/kg) | Tox 4 h (neurotoxicity (rotorod) [2]; 30 mg/kg) | Tox 30 min (neurotoxicity (rotorod) [2]; 100 mg/kg) | Tox 4 h (neurotoxicity (rotorod) [2]; 100 mg/kg) | Tox 30 min (neurotoxicity (rotorod) [2]; 300 mg/kg) | Tox 4 h (neurotoxicity (rotorod) [2]; 300 mg/kg) | responders at 30 mg/kg ([4]; 4 h, read-out: MES 4 h) [%] | responders at 100 mg/kg [4, 12] [%] | responders at 300 mg/kg [4, 12] [%] | responders at 30 mg/kg [4, 13] [%] | responders at 100 mg/kg [4, 13] [%] | responders at 300 mg/kg [4, 13] [%] | Tox (neurotoxicity (rotorod) [6]; 0.25 h) | Tox (neurotoxicity (rotorod) [6]; 0.50 h) | other results |
| --- | --- | --- | --- | --- | --- | --- | --- | --- | --- | --- | --- | --- | --- | --- | --- | --- | --- | --- | --- | --- | --- |
| CC1CC(=O)C2=C(C1)Nc1ccccc1S2 (stereo not shown) [Compound 4d, 2-Methyl-2,3-dihydro-1H-phenothiazin-4[10H] -one] | 0 | 0 | 0 | 0 | 0 | 0 | 0/4 | 0/2 | 0/8 | 0/4 | 0/4 | 0/2 | 0 | 0 | 0 | 0 | 0 | 0 | – | – | MES confirmation ([3]; 0.25 h): 0/4; MES confirmation (repeat test) ([3]; 0.25 h): 1/4; MES confirmation ([3]; 0.50 h): 3/4; MES confirmation (repeat test) ([3]; 0.50 h): 1/4; MES confirmation ([3]; 1.00 h): 1/4; MES confirmation ([3]; 2.00 h): 0/4; phase I activity ([4]; Phase I, in words): inactive; TTE Result ([5]; 0.25 h): 1/4; TTE Result (repeat test) ([5]; 0.25 h): 2/4; TTE Result ([5]; 0.50 h): 3/4; TTE Result (repeat test) ([5]; 0.50 h): 2/4; TTE Result ([5]; 1.00 h): 1/4; TTE Result (repeat test) ([5]; 1.00 h): 0/4; TTE Result ([5]; 2.00 h): 3/4; TTE Result (repeat test) ([5]; 2.00 h): 0/4; TTE Result ([5]; 4.00 h): 0/4; TTE Result (repeat test) ([5]; 4.00 h): 0/4; TTE Result (repeat test) ([5]; 6.00 h): 1/4 |
| COC(=O)[C@@H]1C(=O)C2=C(C[C@H]1C)Nc1ccc(Cl)cc1S2 (relative stereo) [Compound 4e, 7-Chloro-3-carbomethoxy-2-methyl-2,3-dihydro-1H-phenothiazin-4[10H] -one] | 0 | 0 | 0 | 0 | 0 | 0 | 0/4 | 0/2 | 0/8 | 0/4 | 0/4 | 0/2 | 0 | 66.7 | 100 | 0 | 0 | 0 | 0/4 | 0/4 | Tox (neurotoxicity (rotorod) [6]; 1.00 h): 0/4; Tox (neurotoxicity (rotorod) [6]; 2.00 h): 0/4; Tox (neurotoxicity (rotorod) [6]; 4.00 h): 0/4; responders at 30 mg/kg ([7]; 0.25 h): 0%; responders at 30 mg/kg ([7]; 1.00 h): 75%; responders at 30 mg/kg ([7]; 2.00 h): 75%; responders at 30 mg/kg ([7]; 4.00 h): 50%; responders at 30 mg/kg ([7]; 0.5 h, 0.50 h): 0% |
| CCOC(=O)[C@@H]1C(=O)C2=C(C[C@H]1C)Nc1ccc(Cl)cc1S2 (relative stereo) [Compound 4f, 7-Chloro-3-carbethoxy-2-methyl-2,3-dihydro-1H-phenothiazin-4[10H] -one] | 0 | 0 | 0 | 0 | 0 | 40 | 0/4 | 0/2 | 0/8 | 0/4 | 0/4 | 0/2 | 0 | 33.3 | 100 | 0 | 66.7 | 100 | 0/4 | 0/4 | Tox (neurotoxicity (rotorod) [6]; 1.00 h): 0/4; Tox (neurotoxicity (rotorod) [6]; 2.00 h): 0/4; Tox (neurotoxicity (rotorod) [6]; 4.00 h): 0/4; responders at 30 mg/kg ([7]; 0.25 h): 0%; responders at 30 mg/kg ([7]; 1.00 h): 75%; responders at 30 mg/kg ([7]; 2.00 h): 75%; responders at 30 mg/kg ([7]; 4.00 h): 75%; responders at 30 mg/kg ([7]; 0.5 h, 0.50 h): 25% |
| COC(=O)[C@@H]1C(=O)C=C(Nc2ccc(Cl)cc2)C[C@H]1C (relative stereo) [Compound 1, methyl 4-[(4'-chlorophenyl)-amino]-6-methyl-2-oxo-3-cyclohexene-1-carboxylate, reference compound] | – | – | – | – | – | – | – | – | – | – | – | – | – | – | – | – | – | – | – | – | TD50 [8]: > 380 mg/kg; responders at 10 mg/kg ([7]; 0.25 h): 75%; responders at 10 mg/kg ([7]; 1.00 h): 100%; responders at 10 mg/kg ([7]; 2.00 h): 100%; responders at 10 mg/kg ([7]; 4.00 h): 75%; responders at 10 mg/kg ([7]; 0.5 h, 0.50 h): 100%; ED50 ([7]; MES, Phase VIB, first test, read-out: ED50): 5.8 mg/kg; MES (repeat test) ([7]; 0.50 h): 3/4; MES (repeat test) ([7]; 1.00 h): 2/4; MES (repeat test) ([7]; 2.00 h): 1/4 |
| COC(=O)[C@@H]1C(=O)C2=C(C[C@H]1C)Nc1ccccc1S2 (relative stereo) [Compound 4a, 3-Carbomethoxy-2-methyl-2,3-dihydro-1H-phenothiazin-4[10H] -one] | 0 | 0 | 0 | 0 | 0 | 0 | 0/4 | 0/2 | 0/8 | 0/4 | 1/4 | 0/2 | 0 | 33.3 | 100 | 0 | 100 | 100 | 0/4 | 0/4 | Tox (neurotoxicity (rotorod) [6]; 1.00 h): 0/4; Tox (neurotoxicity (rotorod) [6]; 2.00 h): 0/4; Tox (neurotoxicity (rotorod) [6]; 4.00 h): 0/4; responders at 30 mg/kg ([7]; 0.25 h): 0%; responders at 30 mg/kg ([7]; 1.00 h): 50%; responders at 30 mg/kg ([7]; 2.00 h): 25%; responders at 30 mg/kg ([7]; 4.00 h): 50%; responders at 30 mg/kg ([7]; 0.5 h, 0.50 h): 25% |
